# Assays:
# Human hair follicles [1] = assay: Growth of human hair follicle (length measurements in culture); format: cell-based; settings: for Growth (% of control): hair follicle length
# Protocol: (§1) Human hair follicles were obtained from human skin fragments (obtained by plastic surgery) and grown in supplemented William's E medium supplemented with penicillin/streptomycin, L-glutamine (2 mM), insulin (10 μg/ml and hydrocortisone (8 nM). Hair follicle growth was assessed via length measurements (day 0, 4, 7). Triiodothyronine (T3, 30 μM) was used as positive control. The effect of steviol (at 0.625 to 5 μg/ml) was tested in parallel. At day 7, RNA was extracted from hair follicles that had been subjected to different treatments (control, T3, steviol). RNA was processed for Affymetrix® DNA microarray analysis in order to identify effects of compounds on gene expression. Where appropriate, RNA expression levels were further quantified by RT-PCR using the ABI 7900 Taqman instrumentation.
# Human hair follicles [2] = assay: RT-PCR mRNA level of marker genes in hair follicles; format: cell-based
# Protocol: as §1, with “The effect of steviol (at 0.625 to 5 μg/ml) was tested in parallel.” left out, “instrumentation. The mRNA level of some marker genes involved in growth and/or differentiation of cells in the skin and in hair follicle was further determined by RT-PCR and is shown in Table 3.” for “instrumentation.”
# [3] = Stabilization of steviol in acidic aqueous solution (discoloration, Pantone color index); format: physicochemical; settings: for Pantone index (color index of solution): 1% solution in water
# Protocol: Steviol was dissolved at 1 wt.-% in water and the pH adjusted at different values as shown below. […] However, the more acidic the pH, the less discoloration was observed as reported by the patone color index. Color index of 1% Steviol solution in water at different pH: […]
# [4] = system: Normal human melanocytes NHM (HEMn-MP, Clonetics); assay: Quantification of melanin synthesis in cell culture; format: cell-based; settings: for Melanin content, percentage of the control: three days, absorbance 405 nm
# Protocol: Normal human melanocytes NHM (HEMn-MP, Clonetics) were seeded in 96 well cell culture plates and grown to sub-confluence for two days in a mixture of M2-Medium (Clonetics) and Medium (Promocell). Culture medium was exchanged with Culture Medium containing Steviol and melanogenesis progressed for another three days at 37° C. with another medium exchange on day two. Including cell layer and culture supernatant the total melanin was extracted using 1.7M KOH with vigorous shaking at RT. We measured melanin content at 405 nm in an absorbance plate reader. The data is normalized to 100% for the un-treated control sample, and expressed as percentage of the control.
# Human hair follicles [5] = assay: Affymetrix DNA microarray gene expression in hair follicles; format: cell-based; settings: day 7 RNA
# Protocol: as §1, with “instrumentation. Global effects of steviol on gene expression were determined by transcriptomics i.e. DNA microarray analysis. The obtained data were processed with Genedata software tools.” for “instrumentation.”
# [6] = system: normal human scalp skin hair follicles; assay: Hair follicle melanogenesis (in vitro graying of cultured anagen VI scalp hair follicles); format: cell-based; parameters: key: remaining pigmentation is scored minimal (+); steviol 1.25 μM (++); Remaining pigmentation is scored (+++); settings: seven day culture
# Excerpt: For optimal quality of hair follicles with an intact pigmentary-unit, normal human scalp skin hair follicles in the anagen VI stage of the hair cycle were isolated from scalp skin biopsies obtained from elective plastic surgery after obtaining informed consent from patients following the protocol published by Philpott and colleagues with slight modifications (Philpott et al. 1990, Philpott 1999). Briefly, after separation of epidermis and dermis from subcutaneous fat the dermis just above the dermis/subcutis border under a binocular dissecting microscope, the proximal two thirds of anagen hair follicles located in the subcutaneous fat were isolated using watchmakers forceps and subsequently collected in Petri dishes containing complete hair follicle culture medium (Williams E, Biochrom KG seromed, Berlin, Germany); 1% Penicillin-Streptomycin; 1% L-Glutamine 200 mM; 0.02% hydrocortisone; 0.1% Insulin. Three hair follicles per well were then randomly distributed and cultured in 24 well plates (Costar, N.Y., USA) containing […] of complete hair follicle culture medium per well. Per experiment, a minimum of three wells (containing three hair follicles each) was assigned to each test group, and was supplemented with different concentrations of test substances pre-diluted in the respective dissolvent 100× concentrated. An equal number of control follicles were cultured in complete hair follicle culture medium alone. Each experiment was repeated with hair follicles from at least three different age, pigmentation and sex matched donors. Every second day, each well was photo-documented, the pigmentation degree of each hair follicle determined, medium replaced and fresh supplements added. After 7 days hair follicles were snap frozen and stored at −80° C. Steviol was tested at two different concentrations (0.625 and 1.25 μM). […] Sphingosyl phosphorylcholine at 1 μM was used as a positive control as it is known from previous work to reduce the speed of in vitro hair graying. Remaining pigmentation is scored (+++). […]
compound,measurement,setting,value
"C=C1C[C@@]23CC[C@H]4[C@@](C)(CCC[C@@]4(C)C(=O)O)[C@@H]2CC[C@]1(O)C3 [Steviol, steviol]",Growth (% of control),Human hair follicles [1]; 0.625 μg/mL,122 % of control
same,Growth (% of control),Human hair follicles [1]; 1.25 μg/mL,121 % of control
same,Growth (% of control),Human hair follicles [1]; 2.5 μg/mL,113 % of control
same,Growth (% of control),Human hair follicles [1]; 5 μg/mL,117 % of control
same,Elongation of hair follicles (in words),Human hair follicles [1]; 0.625 to 5 μg/ml,dose-dependently favoured the elongation of hair follicles
same,"Fold changes (versus control), Integrin alpha-6 mRNA",Human hair follicles [2]; 0.625 μg/mL,1.62 ± 0.06
same,"Fold changes (versus control), COX-2 mRNA",Human hair follicles [2]; 1.25 μg/mL,0.46 ± 0.17
same,"Fold changes (versus control), HO-1 mRNA",Human hair follicles [2]; 1.25 μg/mL,0.64 ± 0.08
same,"Fold changes (versus control), Involucrin mRNA",Human hair follicles [2]; 1.25 μg/mL,0.51 ± 0.22
same,"Fold changes (versus control), Keratin 6 mRNA",Human hair follicles [2]; 10 μg/mL,1.33 ± 0.11
same,Pantone index (color index of solution),[3]; pH 6,155
same,Pantone index (color index of solution),[3]; pH 6.5,155
same,Pantone index (color index of solution),[3]; pH 7,158
same,Pantone index (color index of solution),[3]; pH 9,160
same,Time until solution turns brown (instability),"[3]; 1 wt.-% in water, pH 9",≤ 1 days
same,"Melanin content, percentage of the control",[4]; 0.25 microM,109%
same,Production of melanin in human melanocytes (in words),[4]; 0.25 to 1 micro M,clear dose dependent positive effect on the production of melanin
same,"Melanin content, percentage of the control",[4]; 0.5 micro M,124%
same,"Melanin content, percentage of the control",[4]; 1 micro M,130%
same,"Ratio of steviol-treated/untreated, gene CASP8 and FADD-like apoptosis regulator",Human hair follicles [5],2.58
same,"Ratio of steviol-treated/untreated, gene Chemokine (C-X-C motif) ligand 12 (stromal cell-derived factor 1)",Human hair follicles [5],2.22
same,"Ratio of steviol-treated/untreated, gene Collagen, type IV, alpha 6",Human hair follicles [5],2.04
same,"Ratio of steviol-treated/untreated, gene Fibroblast growth factor 7 (keratinocyte growth factor)",Human hair follicles [5],2.91
same,"Ratio of steviol-treated/untreated, gene Insulin-like growth factor 1 receptor",Human hair follicles [5],2.00
same,"Ratio of steviol-treated/untreated, gene Integrin, alpha 6",Human hair follicles [5],2.15
same,"Ratio of steviol-treated/untreated, gene TIMP metallopeptidase inhibitor 3",Human hair follicles [5],2.32
same,"Ratio of steviol-treated/untreated, gene Topoisomerase (DNA) II alpha 170 kDa",Human hair follicles [5],2.45
same,"Ratio of steviol-treated/untreated, gene Transmembrane protein with EGF-like and two follistatin-like domains 2",Human hair follicles [5],3.10
same,Pigmentation (remaining hair follicle pigmentation score),[6]; 0.625 microM,+++
same,Pigmentation (remaining hair follicle pigmentation score),[6]; 1.25 microM,++
"CC1(C)[C@@H](O[C@H]2O[C@H](C(=O)O)[C@@H](O)[C@H](O)[C@H]2O[C@@H]2O[C@H](C(=O)O)[C@@H](O)[C@H](O)[C@H]2O)CC[C@]2(C)[C@H]3C(=O)C=C4[C@@H]5C[C@@](C)(C(=O)O)CC[C@]5(C)CC[C@@]4(C)[C@]3(C)CC[C@@H]12 [Glycyrrhizin, reference compound]","Melanin content, percentage of the control",[4]; 1.5 mM,132%
"N[C@@H](Cc1cc(I)c(Oc2ccc(O)c(I)c2)c(I)c1)C(=O)O [Triiodothyronine, reference compound]",Growth (% of control),"Human hair follicles [1]; 30 μM, day 0, 4, 7",133 % of control
"CCCCCCCCCCCCC/C=C/[C@@H](O)[C@@H](N)COP(=O)([O-])OCC[N+](C)(C)C [Sphingosylphosphorylcholine, reference compound]",Pigmentation (remaining hair follicle pigmentation score),[6]; 1 microM,+++
